“Also recorded” adds a separate entry of the source.
Legend:
[1] = system: lymphocyte proliferation, cells from the thymus of normal BALB/c mice (PHA and IL-1); assay: comitogen-induced thymocyte proliferation procedure (LAF); type: cell-based
Experimental: (§1) Immunosuppressive activity was evaluated in an in vitro standard pharmacological test procedure to measure lymphocyte proliferation (LAF) and in two in vivo standard pharmacological test procedures. The first in vivo procedure was a popliteal lymph node (PLN) test procedure which measured the effect of compounds of this invention on a mixed lymphocyte reaction and the second in vivo procedure evaluated the survival time of a pinch skin graft.
Briefly, cells from the thymus of normal BALB/c mice are cultured for 72 hours with PHA and IL-1 and pulsed with tritiated thymidine during the last six hours. […] Cells are harvested and incorporated; radioactivity is determined. inhibition of lymphoproliferation is assessed in percent change in counts per minute from non-drug treated controls. The results are expressed by the following ratio: [formula]

[2] = system: pinch skin graft; assay: survival time of pinch skin graft; type: in vivo, mouse (male DBA/2 donors, male BALB/c recipients); settings: intraperitoneally; mean graft survival time ± S.D.
Experimental: as §1
The second in vivo test procedure is designed to determine the survival time of pinch skin graft from male DBA/2 donors transplanted to male BALB/c recipients. The method is adapted from Billingham R. E. and Medawar P. B., J. Exp. Biol. 28:385-402, (1951). Briefly, a pinch skin graft from the donor is grafted on the dorsum of the recipient as a homograft, and an autograft is used as control in the same region. […] Untreated recipients serve as rejection control. The graft is monitored daily and observations are recorded until the graft becomes dry and forms a blackened scab. This is considered as the rejection day. The mean graft survival time (number of days±S.D.) of the drug treatment group is compared with the control group.

[3] = system: 5 strains of Candida albicans; assay: antifungal plate test procedure, 5 strains (overall); type: cell-based; settings: not evaluated; considered because of structural similarity
Experimental: The following represents the typical procedure used. Compound to be tested was placed on sterile dried 1/4" plate disks, and allowed to dry. Agar plates were seeded with fungi and allowed to solidify. The impregnated disks were placed on the seeded Agar surface and incubated for the time required for the particular culture. Results are expressed in MIC (μg/ml) to inhibit growth.

[4] = system: transplant rejection; settings: cited from earlier work
[5] = system: mixed lymphocyte reaction, popliteal lymph node; assay: popliteal lymph node (PLN) test procedure, in vivo mixed lymphocyte reaction; design: species or system mouse (BALB/c donors, C3H recipients); settings: p.o. daily Day 0 to Day 4, carboxymethyl cellulose vehicle; rapamycin 1.0
Experimental: as §1
A mixed lymphocyte reaction (MLR) occurs when lymphoid cells from genetically distinct animals are combined in tissue culture. Each stimulates the other to undergo blast transformation which results in increased DNA synthesis that can be quantified by the incorporation of tritiated thymidine. Since stimulating a MLR is a function of disparity at Major Histocompatibility antigens, an in vivo popliteal lymph node (PLN) test procedure closely correlates to host vs. graft disease. Briefly, irradiated spleen cells from BALB/c donors are injected into the right hind foot pad of recipient C3H mice. The drug is given daily, p.o. from Day 0 to Day 4. On Day 3 and Day 4, tritiated thymidine is given i.p., b.i.d. On Day 5, the hind popliteal lymph nodes are removed and dissolved, and radioactivity counted. […] Percent suppression is calculated using the non-drug treated animals as allogenic control.

[6] = in vivo; cited from earlier work
[7] = system: Candida albicans; settings: in vitro and in vivo; cited from earlier work

## COC(=O)CCC(=O)O[C@@H]1CC[C@@H](C[C@@H](C)[C@@H]2CC(=O)[C@H](C)/C=C(\C)[C@@H](O)[C@@H](OC)C(=O)[C@H](C)C[C@H](C)/C=C/C=C/C=C(\C)[C@@H](OC)C[C@@H]3CC[C@@H](C)[C@@](O)(O3)C(=O)C(=O)N3CCCC[C@H]3C(=O)O2)C[C@H]1OC [Example 12, Rapamycin-42-monomethylsuccinate]
[1]; Mus musculus, Lymphocyte, percent inhibition at 100 nM
  inhibition at 0.1 µM: 97%
[2]
  Skin Graft (days + SD), mean graft survival time: 10.8 ± 0.4 days
[3]
  antifungal activity: considered to have antifungal activity

## CO[C@H]1C[C@@H]2CC[C@@H](C)[C@@](O)(O2)C(=O)C(=O)N2CCCC[C@H]2C(=O)O[C@H]([C@H](C)C[C@@H]2CC[C@@H](OC(=O)CCC(=O)OCc3ccc(C(F)(F)F)cc3)[C@H](OC)C2)CC(=O)[C@H](C)/C=C(\C)[C@@H](O)[C@@H](OC)C(=O)[C@H](C)C[C@H](C)/C=C/C=C/C=C/1C [Example 13, Rapamycin-42-(4-trifluoromethylbenzyl)succinate]
[1]; ratio, thymocytes 72 hours with PHA and IL-1, rapamycin 1.0
  LAF (ratio): 2.11
[2]
  Skin Graft (days + SD), mean graft survival time: 10.6 ± 0.9 days
[3]
  antifungal activity: considered to have antifungal activity

## CO[C@H]1C[C@@H]2CC[C@@H](C)[C@@](O)(O2)C(=O)C(=O)N2CCCC[C@H]2C(=O)O[C@H]([C@H](C)C[C@@H]2CC[C@@H](O)[C@H](OC)C2)CC(=O)[C@H](C)/C=C(\C)[C@@H](O)[C@@H](OC)C(=O)[C@H](C)C[C@H](C)/C=C/C=C/C=C/1C [Rapamycin]
[4]
  immunosuppressive effect: immunosuppressive effects
[5]
  PLN (ratio): 1.0
[6]
  usefulness in preventing or treating disease: systemic lupus erythematosus; also recorded: pulmonary inflammation; also recorded: insulin dependent diabetes mellitus; also recorded: smooth muscle cell proliferation and intimal thickening following vascular injury; also recorded: ocular inflammation
[7]
  antifungal activity: found to have antifungal activity, particularly against Candida albicans, both in vitro and in vivo

— patent publication US5378696A, “Rapamycin esters” (American Home Products Corporation, priority 1993, dated 1995)
